Measurements from US10100372B2, “Recombinant RSV reporter virus” (priority 2014, dated 2018).

Key:
[1] = system: host cell metabolic activity; conditions: sourced compound
RSV F protein [2] = molecular target: T1, RSV F protein (Human respiratory syncytial virus, UniProt P12568, E66K/H515N/I79M/K191R/N371Y/N80K/T101P/T357K/V557I); assay type: cell-based; conditions: plasmid-based reporter assay
T1 construct: expressed in transfected cells; host or cells: HEp-2 cells infected with recRSV A2-L19F-mKate2; F is expressed from the viral genome, not from a plasmid
T1 sequence (P12568 137-574, looked up, stated change not applied): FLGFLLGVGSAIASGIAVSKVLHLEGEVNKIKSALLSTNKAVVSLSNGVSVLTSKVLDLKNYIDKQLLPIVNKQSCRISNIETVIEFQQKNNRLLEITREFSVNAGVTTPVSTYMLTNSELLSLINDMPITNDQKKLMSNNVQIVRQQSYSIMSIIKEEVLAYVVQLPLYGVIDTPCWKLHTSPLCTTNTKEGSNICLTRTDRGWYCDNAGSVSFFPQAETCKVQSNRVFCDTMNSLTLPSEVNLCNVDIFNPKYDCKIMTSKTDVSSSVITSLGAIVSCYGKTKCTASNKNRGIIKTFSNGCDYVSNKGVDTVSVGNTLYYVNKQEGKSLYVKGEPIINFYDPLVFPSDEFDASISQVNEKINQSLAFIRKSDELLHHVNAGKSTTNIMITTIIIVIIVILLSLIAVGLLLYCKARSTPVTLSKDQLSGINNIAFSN
T1 sequence (P12568 26-109, looked up, stated change not applied): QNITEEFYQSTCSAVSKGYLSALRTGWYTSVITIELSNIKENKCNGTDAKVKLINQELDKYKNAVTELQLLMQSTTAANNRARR

recRSV A2-L19F [3] = assay: microbe, parasite or virus in culture; assay type: cell-based
RSV F protein [4] = molecular target: T1, RSV F protein; assay type: cell-based
recRSV A2-L19F [5] = assay type: cell-based; conditions: increasing compound concentrations
recRSV A2-L19F-ren = assay type: cell-based; conditions: GPAR-3710 added later than four hours post-infection; JMN3-003 added eight hours post-infection
[6] = system: recRSV-L19FD489E-fireSMASh; assay type: cell-based, Respiratory Syncytial Virus; conditions: 10 μM; 96-well; BEAS-2B
recRSV A2-L19F-renilla = assay: microbe, parasite or virus in culture; assay type: cell-based; conditions: human respiratory syncytial virus; 0.5 μM concentration counterscreens; read-out: RSV inhibition
[7] = system: recRSV-L19FD489E-fireSMASh; assay type: cell-based
RSV A2 strain = conditions: active concentrations based on in vitro assays; when available RSV A2 strain; cited from earlier work
RSV F protein [8] = molecular target: RSV F protein (Human respiratory syncytial virus, UniProt P12568); conditions: resistance sites in the RSV F protein; cited from earlier work
Chain of RSV F protein (Human respiratory syncytial virus, UniProt P12568) (P12568 137-574 limits assumed): as the sequence (P12568 137-574, looked up, stated change not applied) above
Chain of RSV F protein (Human respiratory syncytial virus, UniProt P12568) (P12568 26-109 partner limits assumed): as the sequence (P12568 26-109, looked up, stated change not applied) above

## Cc1ccc(-n2c(SCC(=O)N/N=C/c3c4ccccc4cc4ccccc34)nnc2-c2ccccc2)cc1 [GPAR-3710]
[1]
  cytotoxicity: low cytotoxicity
RSV F protein [2]
  RSV F protein-mediated membrane fusion activity: specifically and potently inhibited
recRSV A2-L19F [3]; dose-dependent inhibition of different RSV strains
  active concentrations against different RSV strains: nano- to low micromolar range
recRSV A2-L19F [3]; human respiratory syncytial virus, active concentration based on in vitro assays, RSV entry inhibitor
  EC50: 130 nM
RSV F protein [4]; gradual adaptation to increasing compound concentrations
  adaptation period until robust resistance (growth in 30 μM compound): ≤ 30 days
RSV F protein [4]; resistance sites in the RSV F protein, identified through viral adaptation
  reported resistance sites: FT400A FD401E FD486E FF488I FF488S FD489E
recRSV A2-L19F [5]
  RSV entry rate: significant, dose-dependent reduction
recRSV A2-L19F-ren
  antiviral activity in time-of-addition study: essentially all antiviral activity was lost
[6]
  hit status in co-infection validation assay with pan-resistant RSV-FD489E: did not emerge as hits
recRSV A2-L19F-renilla
  inhibition at 0.5 µM: > 90%

## C=C[C@@H]1C[C@]1(NC(=O)[C@@H]1C[C@@H](Oc2ncc(OC)c3ccc(Cl)cc23)CN1C(=O)[C@@H](NC(=O)OC(C)(C)C)C(C)(C)C)C(=O)NS(=O)(=O)C1CC1 [ASV, asunaprevir]
[7]; 3 μM ASV
  effect on progeny virus titers: no effect
[7]; growth in the presence of 3 μM ASV
  reduction of firefly luciferase activity: approximately 90%

## Cc1ccc(O)c(Cn2c(NC3CCN(CCN)CC3)nc3c(C)cccc32)n1 [JNJ2408068]
RSV A2 strain
  EC50: 2.1 nM
RSV F protein [8]
  reported resistance sites: FK399I FD486N FE487D

## Cc1ccc(O)c(Cn2c(NC3CCN(CCN)CC3)nc3c(C)cccc32)n1 [R170591]
RSV A2 strain
  EC50: 2 nM
RSV F protein [8]
  reported resistance sites: FF488I FF488L FD489Y

## Cc1nnnn1/N=C/c1ccc(O)c(C(c2ccc(O)cc2)c2cc(/C=N/n3nnnc3C)ccc2O)c1 [VP-14637]
RSV A2 strain
  EC50: 1.4 nM
RSV F protein [8]
  reported resistance sites: FT400A FF488Y

## COc1ccc(-n2c(SC(C)C(=O)Nc3ccc(C)cc3Cl)nc3ccccc32)cc1 (stereo not shown) [JMN3-003]
recRSV A2-L19F-ren
  antiviral activity in time-of-addition study: remained potently inhibitory
